Measurements: patent publication US20210087593A1, “N-[…] ALKALOID COMPOUNDS” (Willow BioSciences Inc., priority 2017, published 2021)

System: EsNMT
Assay: N-alkylation substrate screen using EsNMT (LC-MS)
Assay type: biochemical, Ephedra sinica
Set-up: key to N-alkylation of substrate alkaloid compounds, Enzyme EsNMT: −=no detectable quantities of product N-alkylated compound; Trace, +, ++, +++=increasing relative levels of product N-alkylated compound; Trace, +, ++, +++=increasing relative levels of product N-alkylated compound; Trace, +, ++, +++=increasing relative levels of product N-alkylated compound; Trace, +, ++, +++=increasing relative levels of product N-alkylated compound
Conditions: for N-alkylation of substrate alkaloid compounds, Enzyme EsNMT: 25 μg protein, 1 mM substrate, 1 mM SAM, 60 mM HEPES pH 8, 16 hours at 37° C., relative level of N-alkylated product by LC-MS; for N-alkylated alkaloid product detected after incubation with EsNMT (SEQ. ID NO: 2): incubated in accordance with Example 1, LC-MS
Protocol: The EsNMT coding sequence was amplified from Ephedra sinica cDNA using gene-specific primers containing restriction sites with Q5 HiFi DNA polymerase (NEB). Restriction digests and ligations (NEB) were carried out to generate a pQE plasmid (Qiagen) for heterologous expression of HIS6-tagged recombinant EsNMT. Protein overexpression was carried out at 18° C. in Escherichia coli SG13009 (Qiagen) grown in lysogeny broth (LB) to which 0.5 mM isopropyl β-D-1-thiogalactopyranoside (IPTG) was added.
Total soluble protein was extracted from each culture and the recombinant NMTs were purified using TALON cobalt affinity resin (Clontech) followed by desalting and concentration with Amicon Ultra-30 centrifugal filters (EMD Millipore). Protein concentration was determined using the Bradford method, and purity was assessed by SDS-PAGE followed by Coomassie staining.
Forty-four nitrogenous molecules were screened as potential substrates for EsNMT using a standardized assay (25 μg protein, 1 mM substrate, 1 mM SAM, 60 mM HEPES pH 8, 16 hours at 37° C.). In addition, a representative subset was screened as potential substrates for GfCNMT, GfTNMT and PsRNMT under identical conditions. For each substrate and enzyme combination, negative control assays were carried out using protein heated to 100° C. (boiled) for 20 minutes. Assays were quenched with 9 volumes of methanol, centrifuged to pellet insoluble debris and the supernatants were stored at −20° C. prior to analysis.
Assay supernatants were analyzed by liquid chromatography-mass spectrometry (LC-MS). LC-MS analysis was performed using a 1200 HPLC coupled with a 6410 triple-quadrupole MS (Agilent). Samples (2 μl) were injected onto a Luna […] Phenyl-Hexyl 100 Å HPLC column and analytes were eluted in a gradient of solvent A (0.1% Formic acid, 5% v/v methanol in water) and solvent B (0.1% Formic acid in methanol) at a flow rate of 300 μl per minute. The gradient began at 0% B, reached 35% B by 12 minutes, then increased to 85% B at 14 min and remained at that level until 18 minutes. Subsequently, the mixture returned to 0% B over a period of 3 minutes before a final 6 minute re-equilibration period. Analytes were applied to the mass analyzer using an electrospray ionization probe operating in positive mode with the following condition: capillary voltage, 4000V; fragmentor voltage, 100V, source temperature, 350° C.; nebulizer pressure, 50 PSI; gas flow 10 L/min. Ions were detected in full scan mode where quadrupoles 1 and 2 were set to RF only, whereas the third quadrupole scanned from 100-500 m/z over 525 milliseconds. Substrate acceptance by the enzymes was determined according to the formation of a peak with a 14-m/z increase in mass, corresponding to methylated substrate and a decrease in the substrate peak area, relative to the appropriate boiled control assay.
Each of the alkaloid substrates shown in Table 1 were incubated with the following N-alkyltransferases: GfCNMT (SEQ. ID NO: 3), gfTNMT (SEQ. ID NO: 4) and Ps RNMT ([…]) and EsNMT (SEQ. ID NO: 2), as described in Example 1. The presence of N-alkylated alkaloid product was detected as described in Examples 1-20. Legend: ND=Not Determined; −=no detectable quantities of product N-alkylated compound; and Trace, +, ++, +++=increasing relative levels of product N-alkylated compound.

Cn1cnc2c1c(=O)[nH]c(=O)n2C [Theobromine, theobromine]
N-alkylation of substrate alkaloid compounds, Enzyme EsNMT: −
N-alkylated alkaloid product detected after incubation with EsNMT (SEQ. ID NO: 2): No N-alkylated alkaloid product compounds were detected

Oc1ccc(CC2NCCc3cc(O)c(O)cc32)cc1O (centres unmarked) [Norlaudanosoline, norlaudanosoline]
N-alkylation of substrate alkaloid compounds, Enzyme EsNMT: −
N-alkylated alkaloid product detected after incubation with EsNMT (SEQ. ID NO: 2): No N-alkylated alkaloid product compounds were detected

CC[C@@H]1CN2CCc3c([nH]c4cccc(OC)c34)[C@@H]2C[C@@H]1/C(=C\OC)C(=O)OC [Mitragynine, mitragynine]
N-alkylation of substrate alkaloid compounds, Enzyme EsNMT: −
N-alkylated alkaloid product detected after incubation with EsNMT (SEQ. ID NO: 2): No N-alkylated alkaloid product compounds were detected

COc1ccc(Cc2nccc3cc(OC)c(OC)cc23)cc1OC [Papaverine, papaverine, reference compound]
N-alkylation of substrate alkaloid compounds, Enzyme EsNMT: Trace

CC1NCCc2cc(O)c(O)cc21 (centres unmarked) [THQ1, 1-methyl-6,7-dihydroxy-1,2,3,4-tetrahydroisoquinoline]
N-alkylation of substrate alkaloid compounds, Enzyme EsNMT: +

NCCc1ccc(O)c(O)c1 [Dopamine, dopamine]
N-alkylation of substrate alkaloid compounds, Enzyme EsNMT: −
N-alkylated alkaloid product detected after incubation with EsNMT (SEQ. ID NO: 2): No N-alkylated alkaloid product compounds were detected

CN[C@@H](C)[C@@H](O)c1ccccc1 [Pseudoephedrine, pseudoephedrine, reference compound]
N-alkylation of substrate alkaloid compounds, Enzyme EsNMT: +

C[C@H](N)[C@@H](O)c1ccccc1 [Norpseudoephedrine, norpseudoephedrine]
N-alkylation of substrate alkaloid compounds, Enzyme EsNMT: +

CN1[C@@H]2CC[C@H]1CC(=O)C2 [Tropinone, tropinone]
N-alkylation of substrate alkaloid compounds, Enzyme EsNMT: −
N-alkylated alkaloid product detected after incubation with EsNMT (SEQ. ID NO: 2): No N-alkylated alkaloid product compounds were detected

N[C@@H](Cc1c[nH]c2ccccc12)C(=O)O [Tryptophan, tryptophan]
N-alkylation of substrate alkaloid compounds, Enzyme EsNMT: −
N-alkylated alkaloid product detected after incubation with EsNMT (SEQ. ID NO: 2): No N-alkylated alkaloid product compounds were detected

NCc1ccccc1 [Benzylamine, benzylamine]
N-alkylation of substrate alkaloid compounds, Enzyme EsNMT: −
N-alkylated alkaloid product detected after incubation with EsNMT (SEQ. ID NO: 2): No N-alkylated alkaloid product compounds were detected

methylephedrine
N-alkylation of substrate alkaloid compounds, Enzyme EsNMT: +

N[C@@H](Cc1ccc(O)cc1)C(=O)O [Tyrosine, tyrosine]
N-alkylation of substrate alkaloid compounds, Enzyme EsNMT: −
N-alkylated alkaloid product detected after incubation with EsNMT (SEQ. ID NO: 2): No N-alkylated alkaloid product compounds were detected

C[C@H](N)C(=O)c1ccccc1 [Cathinone, cathinone]
N-alkylation of substrate alkaloid compounds, Enzyme EsNMT: +

Nc1ncnc2nc[nH]c12 [Adenine, adenine]
N-alkylation of substrate alkaloid compounds, Enzyme EsNMT: −
N-alkylated alkaloid product detected after incubation with EsNMT (SEQ. ID NO: 2): No N-alkylated alkaloid product compounds were detected

NCC(O)c1ccc(O)cc1 (centres unmarked) [Octopamine, octopamine]
N-alkylation of substrate alkaloid compounds, Enzyme EsNMT: −
N-alkylated alkaloid product detected after incubation with EsNMT (SEQ. ID NO: 2): No N-alkylated alkaloid product compounds were detected

Nc1ccccc1C(=O)O [Anthrallic acid, anthranilic acid]
N-alkylation of substrate alkaloid compounds, Enzyme EsNMT: −
N-alkylated alkaloid product detected after incubation with EsNMT (SEQ. ID NO: 2): No N-alkylated alkaloid product compounds were detected

CC(C)(N)Cc1ccccc1 [Phentermine, phentermine, reference compound]
N-alkylation of substrate alkaloid compounds, Enzyme EsNMT: +
